In ChEMBL document CHEMBL6103654, “Design, Biological Characterization, and Discovery of Capromorelin Derivatives as Oral Growth Hormone Secretagogue Receptor Type 1a Agonist for the Treatment of Growth Hormone Deficiency” (J Med Chem, 2025):
Each block holds one compound with its values, some of them ahead of it.

Columns and labels:
CHO [1] = test: Agonist activity at human GHSR expressed in CHO cells at maximum concentration incubated for 60 min by FLIPR assay relative to control; format: cell-based
[2] = Agonist activity at dog GHSR expressed in CHO cells incubated for 60 min by FLIPR assay; format: cell-based; conditions: 1 h
[3] = biological target: Growth hormone secretagogue receptor type 1 (Rattus norvegicus, UniProt O08725); test: Agonist activity at rat GHSR expressed in CHO cells incubated for 60 min by FLIPR assay; format: functional, cell-based
[4] = biological target: Growth hormone secretagogue receptor type 1 (Rattus norvegicus) (UniProt O08725); test: Agonist activity at rat GHSR expressed in CHO cells at maximum concentration incubated for 60 min by FLIPR assay relative to control; format: functional, cell-based; conditions: filed as agonist
CHO [5] = test: Agonist activity at monkey GHSR expressed in CHO cells at maximum concentration incubated for 60 min by FLIPR assay relative to control; format: cell-based; conditions: Macaca mulatta, filed as agonist
[6] = Agonist activity at monkey GHSR expressed in CHO cells incubated for 60 min by FLIPR assay; format: cell-based; conditions: Macaca mulatta, 1 h
[7] = Agonist activity at human GHSR expressed in CHO cells incubated for 60 min by FLIPR assay; format: cell-based; conditions: 1 h
CHO [8] = test: Agonist activity at dog GHSR expressed in CHO cells at maximum concentration incubated for 60 min by FLIPR assay relative to control; format: cell-based; conditions: Canis lupus familiaris, filed as agonist
Rattus norvegicus [9] = test: Induction of growth hormone level in adult Sprague-Dawley rat blood by measuring AUC(0 to 40 mins) at 0.5 mg/kg, po administered as single dose by ELISA method (reference value: 7.0+/-1.7 ng/mL); format: functional, organism-based
Rattus norvegicus [10] = test: Induction of growth hormone level in Juvenile Sprague-Dawley rat blood at 0.1 mg/kg, po administered as single dose measured after 10 mins by ELISA method (reference value: 23.2+/-5.6 ng/mL); format: functional
Rattus norvegicus [11] = test: Induction of growth hormone level in adult Sprague-Dawley rat blood at 0.5 mg/kg, po administered as single dose measured after 40 mins by ELISA method (reference value: 14.4+/-6.9 ng/mL); format: functional
[12] = Tmax in male Sprague-Dawley rat at 2 mg/kg, po administered as single dose measured after 4 hrs; format: ADME, organism-based; conditions: in vivo
[13] = Oral bioavailability in male Sprague-Dawley rat at 2 mg/kg administered as single dose measured after 4 hrs; format: ADME, organism-based; conditions: in vivo
[14] = Volume of distribution in male Sprague-Dawley rat at 1 mg/kg, iv administered as single dose measured after 4 hrs; format: ADME, organism-based; conditions: in vivo
Rattus norvegicus [15] = test: Induction of growth hormone level in adult Sprague-Dawley rat blood at 0.5 mg/kg, po administered as single dose measured after 20 mins by ELISA method (reference value: 4.9+/-1.1 ng/mL); format: functional
Rattus norvegicus [16] = test: Induction of growth hormone level in adult Sprague-Dawley rat blood at 0.5 mg/kg, po administered as single dose measured after 10 mins by ELISA method (reference value: 13.7+/-7.2 ng/mL); format: functional
Rattus norvegicus [17] = test: Induction of growth hormone level in Juvenile Sprague-Dawley rat blood by measuring AUC(0 to 40 mins) at 0.1 mg/kg, po administered as single dose by ELISA method (reference value: 20.2+/-4.3 ng/mL); format: functional, organism-based; conditions: time 4.0 hrs
Rattus norvegicus [18] = test: Induction of growth hormone level in Juvenile Sprague-Dawley rat blood at 0.1 mg/kg, po administered as single dose measured after 40 mins by ELISA method (reference value: 40.1+/-11.0 ng/mL); format: functional
Rattus norvegicus [19] = test: Induction of growth hormone level in Juvenile Sprague-Dawley rat blood at 0.1 mg/kg, po administered as single dose measured after 20 mins by ELISA method (reference value: 29.1+/-8.6 ng/mL); format: functional
Rattus norvegicus [20] = test: Induction of growth hormone level in Juvenile Sprague-Dawley rat blood at 0.1 mg/kg, po administered as single dose measured after 1 hr by ELISA method (reference value: 45.2+/-12.5 ng/mL); format: functional
[21] = Clearance in male Sprague-Dawley rat plasma at 1 mg/kg, iv administered as single dose measured after 4 hrs; format: ADME, organism-based
Rattus norvegicus [22] = test: Induction of growth hormone level in Juvenile Sprague-Dawley rat blood at 0.1 mg/kg, po administered as single dose measured after 2 hrs by ELISA method (reference value: 26.5+/-7.3 ng/mL); format: functional
Rattus norvegicus [23] = test: Induction of growth hormone level in Juvenile Sprague-Dawley rat blood at 0.1 mg/kg, po administered as single dose measured immediately by ELISA method (reference value: 28.5+/-8.7 ng/mL); format: functional
[24] = AUC in male Sprague-Dawley rat at 2 mg/kg, po administered as single dose measured after 4 hrs; format: ADME, organism-based; conditions: in vivo
[25] = Cmax in male Sprague-Dawley rat at 2 mg/kg, po administered as single dose measured after 4 hrs; format: ADME, organism-based; conditions: in vivo
Rattus norvegicus [26] = test: Induction of growth hormone level in Juvenile Sprague-Dawley rat blood at 0.1 mg/kg, po administered as single dose measured after 4 hrs by ELISA method (reference value: 32.5+/-4.5 ng/mL); format: functional
[27] = Elimination half life in male Sprague-Dawley rat at 1 mg/kg, iv administered as single dose measured after 4 hrs; format: ADME, organism-based; conditions: in vivo, read-out: beta t1/2 (converted)
Rattus norvegicus [28] = test: Induction of growth hormone level in adult Sprague-Dawley rat blood at 0.5 mg/kg, po administered as single dose measured immediately by ELISA method (reference value: 12.6+/-4.4 ng/mL); format: functional
[29] = Elimination half life in male Sprague-Dawley rat at 2 mg/kg, po administered as single dose measured after 4 hrs; format: ADME, organism-based; conditions: in vivo, read-out: beta t1/2 (converted)

Sequence of Growth hormone secretagogue receptor type 1 (Rattus norvegicus) (O08725 whole entry): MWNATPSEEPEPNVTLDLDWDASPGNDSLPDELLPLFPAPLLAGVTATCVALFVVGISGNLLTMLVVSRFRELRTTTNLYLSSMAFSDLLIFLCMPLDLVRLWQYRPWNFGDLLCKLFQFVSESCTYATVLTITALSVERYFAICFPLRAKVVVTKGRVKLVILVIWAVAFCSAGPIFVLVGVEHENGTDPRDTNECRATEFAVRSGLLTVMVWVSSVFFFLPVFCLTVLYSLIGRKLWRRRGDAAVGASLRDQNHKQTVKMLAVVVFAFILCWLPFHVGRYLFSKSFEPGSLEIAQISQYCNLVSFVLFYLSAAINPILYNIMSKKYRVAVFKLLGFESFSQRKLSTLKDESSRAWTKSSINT
Sequence of Growth hormone secretagogue receptor type 1 (O08725 whole entry): as above

SMILES: Cn1nc2c(c1-c1ccccc1)CN(C(=O)[C@@H](COCc1ccccc1)NC(=O)C(C)(C)N)CC2
Activity (CHO [1]; filed as agonist): 72%
EC50 [7]: 72.4 nM

SMILES: CN1N=C2CC3CCC(N3C(=O)[C@@H](COCc3ccccc3)NC(=O)C(C)(C)N)[C@@]2(Cc2ccccc2)C1=O (stereo partly drawn)
Activity (CHO [1]; filed as agonist): 104%
EC50 [7]: 10.4 nM

SMILES: Cn1nc2c(c1-c1ccccc1)CCN(C(=O)[C@@H](COCc1ccccc1)NC(=O)C(C)(C)N)C2
Activity (CHO [1]): 18.2%
EC50 [7]: > 1000 nM

SMILES: CC(C)(N)C(=O)N[C@H](COCc1ccccc1)C(=O)N1CCc2ccn(Cc3ccccc3)c2C1
Activity (CHO [1]; filed as agonist): 47.6%
EC50 [7]: 735 nM

SMILES: CC1N(C(=O)[C@@H](COCc2ccccc2)NC(=O)C(C)(C)N)CCC2=NN(C)C(=O)[C@@]21Cc1ccccc1 (stereo partly drawn)
Activity (CHO [1]; filed as agonist): 97.4%
EC50 [7]: 160 nM

The next compounds have a lower EC50 [7] than those just listed; values first:

EC50 [2]: 0.071 nM
EC50 [3]: 0.016 nM
Activity [4]: 112%
EC50 [6]: 0.044 nM
EC50 [7]: 1.34 nM
SMILES: CC(C)(N)C(=O)N[C@H](COCc1ccccc1)C(=O)N1CCC2=NN(C(C)(C)C)C(=O)[C@]2(Cc2ccccc2)C1
Activity (CHO [1]; filed as agonist): 143%
Activity (CHO [5]): 99.3%
Activity (CHO [8]): 123%

EC50 [2]: 0.118 nM
EC50 [3]: 0.017 nM
Activity [4]: 111%
EC50 [6]: 0.074 nM
EC50 [7]: 1.37 nM
SMILES: CN1N=C2CCN(C(=O)[C@@H](COCc3ccccc3)NC(=O)C(C)(C)N)C[C@@]2(Cc2ccccc2)C1=O [CAPROMORELIN]
Activity (CHO [1]; filed as agonist): 119%
Activity (CHO [5]): 109%
Activity (CHO [8]): 155%

EC50 [2]: 0.105 nM
EC50 [3]: 0.021 nM
Activity [4]: 97.2%
EC50 [6]: 0.051 nM
EC50 [7]: 0.58 nM
SMILES: CC(C)(N)C(=O)N[C@H](COCc1ccccc1)C(=O)N1CCC2=NN(C3CCCC3)C(=O)[C@]2(Cc2ccccc2)C1
Activity (CHO [1]; filed as agonist): 121%
Activity (CHO [5]): 110%
Activity (CHO [8]): 117%

Tmax [12]: 15 min
bioavailability [13]: 26.2%
Vd [14]: 3.3 L/kg
EC50 [2]: 0.092 nM
EC50 [3]: 0.021 nM
Activity [4]: 114%
clearance [21]: 48 mL/min/kg
EC50 [6]: 0.068 nM
EC50 [7]: 0.8 nM
AUC at 4 h [24]: 186 ng·h/mL
Cmax [25]: 139 ng/mL
half-life [27]: 48 min
half-life [29]: 72.6 min
SMILES: CC(C)(N)C(=O)N[C@H](COCc1ccccc1)C(=O)N1CCC2=NN(C3CC3)C(=O)[C@]2(Cc2ccccn2)C1
Activity (CHO [1]; filed as agonist): 123%
AUC (Rattus norvegicus [9]): 58.6 ng·h/mL
Activity (Rattus norvegicus [10]): 168.5 ng/mL
Activity (Rattus norvegicus [11]): 41.9 ng/mL
Activity (Rattus norvegicus [15]): 81.8 ng/mL
Activity (Rattus norvegicus [16]): 178.4 ng/mL
AUC (Rattus norvegicus [17]): 104 ng·h/mL
Activity (Rattus norvegicus [18]): 91.8 ng/mL
Activity (Rattus norvegicus [19]): 220.5 ng/mL
Activity (Rattus norvegicus [20]): 54.5 ng/mL
Activity (CHO [5]): 104%
Activity (Rattus norvegicus [22]): 34.5 ng/mL
Activity (Rattus norvegicus [23]): 65.8 ng/mL
Activity (Rattus norvegicus [26]): 61.1 ng/mL
Activity (Rattus norvegicus [28]): 17.2 ng/mL
Activity (CHO [8]): 87.4%

EC50 [2]: 0.043 nM
EC50 [3]: 0.009 nM
Activity [4]: 97.1%
EC50 [6]: 0.034 nM
EC50 [7]: 0.89 nM
SMILES: CC(C)(N)C(=O)N[C@H](COCc1ccccc1)C(=O)N1CCC2=NN(CC3CC3)C(=O)[C@]2(Cc2ccccc2)C1
Activity (CHO [1]; filed as agonist): 134%
Activity (CHO [5]): 104%
Activity (CHO [8]): 120%

Tmax [12]: 15 min
Vd [14]: 22.8 L/kg
clearance [21]: 169 mL/min/kg
EC50 [7]: 0.87 nM
Cmax [25]: 54 ng/mL
half-life [27]: 86.4 min
SMILES: CC(C)(N)C(=O)N[C@H](COCc1ccccc1)C(=O)N1CCC2=NOC(=O)[C@]2(Cc2ccccc2)C1
Activity (CHO [1]; filed as agonist): 106%
